Source: PubChem BioAssay AID624330 (Southern Research Specialized Biocontainment Screening …, 2012)

Target: Rac GTPase-activating protein 1 (Homo sapiens) (UniProt Q9H0H5)
Assay: MgcRacGAP GTPase-activating activity inhibitors, confirmation, biochemical, ADP Hunter fluorescence, primary and confirmatory (AID 624330);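 also: fluorescence reports GDP produced by GAP-driven GTP hydrolysis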
Conditions: MgcRacGAP-stimulated Rac1 GTP hydrolysis, GST-tagged Rac1 F28L mutant substrate

Chain of Rac GTPase-activating protein 1 (Homo sapiens) (Q9H0H5 whole entry, looked up): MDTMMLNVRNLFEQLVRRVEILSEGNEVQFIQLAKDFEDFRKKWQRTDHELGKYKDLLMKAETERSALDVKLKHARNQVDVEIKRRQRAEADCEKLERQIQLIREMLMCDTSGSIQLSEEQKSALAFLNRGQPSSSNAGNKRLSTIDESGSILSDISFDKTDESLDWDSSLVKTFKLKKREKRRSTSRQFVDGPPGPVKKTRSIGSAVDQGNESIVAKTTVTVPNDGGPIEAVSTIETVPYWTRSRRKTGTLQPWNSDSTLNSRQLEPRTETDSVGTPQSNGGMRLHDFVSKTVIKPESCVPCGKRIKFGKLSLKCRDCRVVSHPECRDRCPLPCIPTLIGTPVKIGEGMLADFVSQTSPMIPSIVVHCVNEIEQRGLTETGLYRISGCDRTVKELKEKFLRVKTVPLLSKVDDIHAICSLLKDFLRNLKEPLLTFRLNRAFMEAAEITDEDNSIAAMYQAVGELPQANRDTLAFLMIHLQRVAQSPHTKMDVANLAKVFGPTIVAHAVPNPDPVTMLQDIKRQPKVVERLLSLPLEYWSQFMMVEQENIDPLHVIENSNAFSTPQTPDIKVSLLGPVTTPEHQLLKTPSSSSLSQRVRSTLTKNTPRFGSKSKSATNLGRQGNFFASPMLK

| IC50 | SMILES |
| --- | --- |
| 67.9 µM | C#CCOCCOCCOCCNc1nc(N2CCN(C(=O)[C@H](CCCCN)n3cc([C@@H](N)C(C)CC)nn3)CC2)nc(N2CCN(C(=O)[C@H](Cc3cc4ccccc4[nH]3)n3cc([C@@H](N)C(C)CC)nn3)CC2)n1 (some centres not stated) |
| 49.6 µM | C#CCOCCOCCOCCNc1nc(N2CCN(C(=O)CCCCCCCCCCNC(=O)[C@@H](CCSC)n3cc(CCO)nn3)CC2)nc(N2CCN(C(=O)CCCCCCCCCCNC(=O)[C@H](CO)n3cc(CCCCCN)nn3)CC2)n1 |
